For this assay, the target named is T1, IL-23R (Homo sapiens, UniProt Q5VWK5).
T1 construct: HEK293 cells containing IL-23R, IL-12RP31 and a firefly luciferase reporter gene driven by a STAT-inducible promoter (Promega); host or cells: HEK293
T1 sequence (Q5VWK5 24-629): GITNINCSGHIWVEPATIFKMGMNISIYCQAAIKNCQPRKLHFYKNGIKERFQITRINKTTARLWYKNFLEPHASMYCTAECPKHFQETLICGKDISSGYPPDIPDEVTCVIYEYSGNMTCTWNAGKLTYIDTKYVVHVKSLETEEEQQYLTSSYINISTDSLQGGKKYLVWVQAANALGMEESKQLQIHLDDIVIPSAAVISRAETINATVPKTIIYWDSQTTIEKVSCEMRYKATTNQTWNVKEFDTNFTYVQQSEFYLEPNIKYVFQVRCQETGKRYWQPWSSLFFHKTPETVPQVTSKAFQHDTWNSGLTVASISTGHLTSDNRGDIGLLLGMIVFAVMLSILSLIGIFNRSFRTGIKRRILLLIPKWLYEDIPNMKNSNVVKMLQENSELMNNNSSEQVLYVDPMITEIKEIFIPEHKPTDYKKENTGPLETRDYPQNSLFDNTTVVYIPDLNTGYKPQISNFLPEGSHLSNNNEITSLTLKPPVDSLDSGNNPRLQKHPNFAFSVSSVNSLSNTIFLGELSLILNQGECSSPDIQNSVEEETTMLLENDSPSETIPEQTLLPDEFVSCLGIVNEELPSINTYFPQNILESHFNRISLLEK
In words: IL23R Reporter Assay. The assay is classed as cell-based. The source says: IL-23 binding to IL-23 receptors results in the activation of the Signal Transducer and Activator of Transcription 3 (STAT3) by phosphorylation and downstream signaling events. Accordingly. the ability of the inhibitors described herein to block IL-23 action can be assessed by monitoring the status of STAT3 activation in response to IL-23. This may be accomplished in reporter cell assays or in intact cells such as peripheral blood mononuclear cells (PBMCs).
Compounds were serially diluted in 100% (v/v) DMSO) and plated using an Echo acoustic dispenser (Labcyte) into 1536-well non-treated black assay plates (Corning #9146). […] After 5 h at 37° C., 5% CO2, 95% relative humidity, cells were placed at 20° C. and treated with BioGlo reagent (Promega) according to the Manufacturer's instructions. Luminescence was measured on a Pherastar FSX (BMG LabTech).
Background: Reporter assays use an easily measured gene product as a stand-in for the process of interest.

A word on the IC50: it is the concentration needed to halve the response being measured. Read a high IC50 as weaker potency in that assay.

Starred links: 1 amine or outer side, 2 acyl side, 3 side chain; linkers in the order of their positions; H or OH if unused. Positions of bridges follow the written chain, without caps; N, C: chain ends. Non-standard residues stand in square brackets, D forms with d. Residues, ends and D or L forms follow the SMILES beside them. Groups on a side chain read outwards from the residue. *: point of attachment. Trp(7-Me) = Cc1cccc2c(C[C@H](N)C(=O)O)c[nH]c12; C18 diacid = O=C(O)CCCCCCCCCCCCCCCCC(=O)*; C16 diacid = O=C(O)CCCCCCCCCCCCCCC(=O)*; γGlu = O=C(O)[C@H](CCC(=O)[*:2])N[*:1]; 2Nal = N[C@@H](Cc1ccc2ccccc2c1)C(=O)O; AEF = NCCOc1ccc(C[C@H](N)C(=O)O)cc1; PEG6 = NCCOCCOCCOCCOCCOCCOCCC(=O)O; Stearoyl = CCCCCCCCCCCCCCCCCC(=O)*; 3Pal = N[C@@H](Cc1cccnc1)C(=O)O; Pen = CC(C)(S)[C@H](N)C(=O)O; Thp = NC1(C(=O)O)CCOCC1; AEEA = NCCOCCOCC(=O)O; Sar = CNCC(=O)O

Regarding `CCCCCCCCCCCCCCCCCC(=O)N[C@@H](CCC(=O)NCCCC[C@H](NC(=O)C1(NC(=O)[C@H](Cc2ccc3ccccc3c2)NC(=O)[C@H](Cc2ccc(OCCN)cc2)NC(=O)[C@H]2NC(=O)[C@H](CCCCNC(C)=O)NC(=O)[C@H](Cc3c[nH]c4c(C)cccc34)NC(=O)[C@H]([C@@H](C)O)NC(=O)[C@H](CC(N)=O)NC(=O)[C@@H](NC(C)=O)C(C)(C)SSC2(C)C)CCOCC1)C(=O)N[C@@H](CC(N)=O)C(=O)N[C@@H](Cc1cccnc1)C(=O)N(C)CC(N)=O)C(=O)O` [Example 31, MeCO-Pen*-N-T-7MeW-K(Ac)-Pen*-AEF-2Nal-THP-K(gEC18)-N-3Pya-Sar-CONH2] (Ac-[Pen]NT[Trp(7-Me)]K(Ac)[Pen][AEF][2Nal][Thp]K([γGlu-Stearoyl])N[3Pal][Sar]-NH2; disulfide 1-6), the IC50 stood at 0.052 nM.
The figure for `CC(=O)NCCCC[C@@H]1NC(=O)[C@H](Cc2c[nH]c3c(C)cccc23)NC(=O)[C@H]([C@@H](C)O)NC(=O)[C@H](CC(N)=O)NC(=O)[C@@H](NC(C)=O)C(C)(C)SSC(C)(C)[C@@H](C(=O)N[C@@H](Cc2ccc(OCCN)cc2)C(=O)N[C@@H](Cc2ccc3ccccc3c2)C(=O)NC2(C(=O)N[C@@H](CCCCNC(=O)COCCOCCNC(=O)CC[C@H](NC(=O)CCCCCCCCCCCCCCC(=O)O)C(=O)O)C(=O)N[C@@H](CC(N)=O)C(=O)N[C@@H](Cc3cccnc3)C(=O)N(C)CC(N)=O)CCOCC2)NC1=O` [Example 34, MeCO-Pen*-N-T-7MeW-K(Ac)-Pen*-AEF-2Nal-THP-K(PEG2gEC16OH)-N-3Pya-Sar-CONH2] (Ac-[Pen]NT[Trp(7-Me)]K(Ac)[Pen][AEF][2Nal][Thp]K([AEEA-γGlu-C16 diacid])N[3Pal][Sar]-NH2; disulfide 1-6) is 0.065 nM; for `CC(=O)NCCCC[C@@H]1NC(=O)[C@H](Cc2c[nH]c3c(C)cccc23)NC(=O)[C@H]([C@@H](C)O)NC(=O)[C@H](CC(N)=O)NC(=O)[C@@H](NC(C)=O)C(C)(C)SSC(C)(C)[C@@H](C(=O)N[C@@H](Cc2ccc(OCCN)cc2)C(=O)N[C@@H](Cc2ccc3ccccc3c2)C(=O)NC2(C(=O)N[C@@H](CCCCNC(=O)COCCOCCNC(=O)CC[C@H](NC(=O)CCCCCCCCCCCCCCCCC(=O)O)C(=O)O)C(=O)N[C@@H](CC(N)=O)C(=O)N[C@@H](Cc3cccnc3)C(=O)N(C)CC(N)=O)CCOCC2)NC1=O` [Example 35, MeCO-Pen*-N-T-7MeW-K(Ac)-Pen*-AEF-2Nal-THP-K(PEG2gEC18OH)-N-3Pya-Sar-CONH2] (Ac-[Pen]NT[Trp(7-Me)]K(Ac)[Pen][AEF][2Nal][Thp]K([AEEA-γGlu-C18 diacid])N[3Pal][Sar]-NH2; disulfide 1-6) it is 0.19 nM; for `CC(=O)NCCCC[C@@H]1NC(=O)[C@H](Cc2c[nH]c3c(C)cccc23)NC(=O)[C@H]([C@@H](C)O)NC(=O)[C@H](CC(N)=O)NC(=O)[C@@H](NC(C)=O)C(C)(C)SSC(C)(C)[C@@H](C(=O)N[C@@H](Cc2ccc(OCCN)cc2)C(=O)N[C@@H](Cc2ccc3ccccc3c2)C(=O)NC2(C(=O)N[C@@H](CCCCNC(=O)COCCOCCNC(=O)COCCOCCNC(=O)CC[C@H](NC(=O)CCCCCCCCCCCCCCCCCCC(=O)O)C(=O)O)C(=O)N[C@@H](CC(N)=O)C(=O)N[C@@H](Cc3cccnc3)C(=O)N(C)CC(N)=O)CCOCC2)NC1=O` [Example 36, MeCO-Pen*-N-T-7MeW-K(Ac)-Pen*-AEF-2Nal-THP-K(PEG2PEG2gEC20OH)-N-3Pya-Sar-CONH2] it is 0.14 nM.
The figure for `CC(=O)NCCCC[C@@H]1NC(=O)[C@H](Cc2c[nH]c3c(C)cccc23)NC(=O)[C@H]([C@@H](C)O)NC(=O)[C@H](CC(N)=O)NC(=O)[C@@H](NC(=O)[C@@H](CCCNC(=N)N)NC(=O)COCCOCCNC(=O)COCCOCCNC(=O)CC[C@H](NC(=O)CCCCCCCCCCCCCCC(=O)O)C(=O)O)C(C)(C)SSC(C)(C)[C@@H](C(=O)N[C@@H](Cc2ccc(OCCN)cc2)C(=O)N[C@@H](Cc2ccc3ccccc3c2)C(=O)NC2(C(=O)N[C@@H](CCCCNC(=O)COCCOCCNC(=O)COCCOCCNC(=O)CC[C@H](NC(=O)CCCCCCCCCCCCCCC(=O)O)C(=O)O)C(=O)N[C@@H](CC(N)=O)C(=O)N[C@@H](Cc3cccnc3)C(=O)N(C)CC(N)=O)CCOCC2)NC1=O` [Example 37, HOC16gEPEG2PEG2-r-Pen*-N-T-7MeW-K(Ac)-Pen*-AEF-2Nal-THP-K(PEG2PEG2gEC16OH)-N-3Pya-Sar-CONH2] ({C16 diacid-γGlu-AEEA-AEEA}-[dR][Pen]NT[Trp(7-Me)]K(Ac)[Pen][AEF][2Nal][Thp]K([AEEA-AEEA-γGlu-C16 diacid])N[3Pal][Sar]-NH2; disulfide 2-7) is 0.19 nM; for `CC(=O)NCCCC[C@@H]1NC(=O)[C@H](Cc2c[nH]c3c(C)cccc23)NC(=O)[C@H]([C@@H](C)O)NC(=O)[C@H](CC(N)=O)NC(=O)[C@@H](NC(C)=O)C(C)(C)SSC(C)(C)[C@@H](C(=O)N[C@@H](Cc2ccc(OCCN)cc2)C(=O)N[C@@H](Cc2ccc3ccccc3c2)C(=O)NC2(C(=O)N[C@@H](CCCCNC(=O)COCCOCCNC(=O)CCOCCOCCOCCOCCOCCOCCNC(=O)CC[C@H](NC(=O)CCCCCCCCCCCCCCCCC(=O)O)C(=O)O)C(=O)N[C@@H](CC(N)=O)C(=O)N[C@@H](Cc3cccnc3)C(=O)N(C)CC(N)=O)CCOCC2)NC1=O` [Example 39, MeCO-Pen*-N-T-7MeW-K(Ac)-Pen*-AEF-2Nal-THP-K(PEG2PEG6gEC18OH)-N-3Pya-Sar-CONH2] (Ac-[Pen]NT[Trp(7-Me)]K(Ac)[Pen][AEF][2Nal][Thp]K([AEEA-PEG6-γGlu-C18 diacid])N[3Pal][Sar]-NH2; disulfide 1-6) it is 0.048 nM; for `CC(=O)NCCCC[C@@H]1NC(=O)[C@H](Cc2c[nH]c3c(C)cccc23)NC(=O)[C@H]([C@@H](C)O)NC(=O)[C@H](CC(N)=O)NC(=O)[C@@H](NC(C)=O)C(C)(C)SSC(C)(C)[C@@H](C(=O)N[C@@H](Cc2ccc(OCCN)cc2)C(=O)N[C@@H](Cc2ccc3ccccc3c2)C(=O)NC2(C(=O)N[C@@H](CCCCNC(=O)COCCOCCNC(=O)COCCOCCNC(=O)CCCCCCCCCCCCCCCCC(=O)O)C(=O)N[C@@H](CC(N)=O)C(=O)N[C@@H](Cc3cccnc3)C(=O)N(C)CC(N)=O)CCOCC2)NC1=O` [Example 41, MeCO-Pen*-N-T-7MeW-K(Ac)-Pen*-AEF-2Nal-THP-K(PEG2PEG2C18OH)-N-3Pya-Sar-CONH2] (Ac-[Pen]NT[Trp(7-Me)]K(Ac)[Pen][AEF][2Nal][Thp]K([AEEA-AEEA-C18 diacid])N[3Pal][Sar]-NH2; disulfide 1-6) it is 0.078 nM.
`CC(=O)NCCCC[C@@H]1NC(=O)[C@H](Cc2c[nH]c3c(C)cccc23)NC(=O)[C@H]([C@@H](C)O)NC(=O)[C@H](CC(N)=O)NC(=O)[C@@H](NC(C)=O)C(C)(C)SSC(C)(C)[C@@H](C(=O)N[C@@H](Cc2ccc(OCCN)cc2)C(=O)N[C@@H](Cc2ccc3ccccc3c2)C(=O)NC2(C(=O)N[C@@H](CCCCNC(=O)CCOCCOCCOCCOCCOCCOCCNC(=O)CCOCCOCCOCCOCCOCCOCCNC(=O)CC[C@H](NC(=O)CCCCCCCCCCCCCCC(=O)O)C(=O)O)C(=O)N[C@@H](CC(N)=O)C(=O)N[C@@H](Cc3cccnc3)C(=O)N(C)CC(N)=O)CCOCC2)NC1=O` [Example 42, MeCO-Pen*-N-T-7MeW-K(Ac)-Pen*-AEF-2Nal-THP-K(PEG6PEG6gEC16OH)-N-3Pya-Sar-CONH2] (Ac-[Pen]NT[Trp(7-Me)]K(Ac)[Pen][AEF][2Nal][Thp]K([PEG6-PEG6-γGlu-C16 diacid])N[3Pal][Sar]-NH2; disulfide 1-6) yielded an IC50 of 0.029 nM.

(Values after patent US12478617B2, “Lipidated peptide inhibitors of interleukin-23 receptor” (JANSSEN BIOTECH, INC., priority 2021, dated 2025).)
